Source: US5663177A (SmithKline Beecham Corporation, priority 1995, dated 1997)

Columns and labels:
[1] = tested on: wild-type (AUX-B 1) Chinese Hamster ovary cells; assay: CHO Microtiter Cytotoxicity Assay (XTT), wild-type (AUX-B1); format: cell-based; conditions: Cricetulus griseus, AuxB1, 72 h, 3 days, read-out: Cytotoxicity IC50, Wildtype (AUX-B1)
Experimental: (§1) The in vitro assays used to test the compound of the present invention for antitumor activity are well-known. A generalized description of these assays follows.
(§2) Chinese Hamster ovary cells are grown in Alpha MEM Medium with L-glutamine and nucleosides and containing 10% fetal bovine serum and 100 units per mL penicillin-streptomycin in 75 cm^2 canted neck tissue culture flasks. They are harvested from these flasks using 0.5% trypsin. Microtiter plates (96-well, sterile, flat bottom) (Corning 25860) are seeded with 1.6×10^3 wild-type (AUX-B 1) Chinese Hamster ovary cells per well or 2×10^3 multidrug resistant (CH^R C5) Chinese Hamster ovary cells per well. The plates are incubated at 37° C., 5% CO2 overnight to allow the cells to attach. The outside wells of each plate are not used, due to evaporation during the incubation time. They are filled with medium and used as blanks. The next day, the medium is aspirated from the wells and 180 μL of fresh medium is added to each well. Compounds are diluted from stock solution in DMSO into fresh medium to a 10X concentration containing 2% DMSO. Twenty μL of this is then added to the 180 μL, of fresh medium in the wells. The plates are then incubated for another 3 days at 37° C., 5% CO2. Eight mg of XTT (SIGMA X-4251) is dissolved in 100 μL of DMSO which is then added to 3.9 mL of phosphate buffered saline without cations (PBS). Phenazine methosulfate (SIGMA P-9625) is dissolved in PBS to a concentration of 3 mg/mL and 20 μL of this is added to the XTT solution. Fifty μL of this XTT/PMS solution is added to each well of the microliter plate and the plates are incubated for 90 minutes at 37° C., 5% CO2 (until the OD450 ~1.0). The plate is then read on a UV Max plate reader, using wells without cells (i.e., containing only 200 μL of medium and 50 μL of XTT/PMS solution) as a background control.

topoisomerase I = conditions: background statement; cited from earlier work
topoisomerase II = conditions: background statement; cited from earlier work
[2] = tested on: multidrug resistant (CH^R C5) Chinese Hamster ovary cells; assay: CHO Microtiter Cytotoxicity Assay (XTT), multidrug resistant (CH^R C5); format: cell-based; conditions: Cricetulus griseus, CHRC5, 72 h, 3 days
Experimental: as §1, §2

P388 [3] = assay: Cytotoxicity IC50, P388; format: cell-based; conditions: Mus musculus
[4] = background statement; cited from earlier work
P388 [5] = assay: Efficacy in mouse tumor model P388 (in vivo)
Experimental: The cytotoxicity and efficacy of the compound of the present invention was also tested in vivo using the well-known P388 mouse tumor model.

[6] = tested on: solid tumor cancers, particularly ovarian cancer and non-small cell lung carcinoma; conditions: humans; cited from earlier work
[7] = background statement; cited from earlier work; remark: listed apart in the source

SMILES: CC[C@@]1(O)C(=O)OCc2c1cc1n(c2=O)Cc2cc3ccccc3nc2-1 [Camptothecin]
- IC50 [1]: 15 nM
- inhibition of topoisomerase I (topoisomerase I): known to inhibit topoisomerase I
- effect on topoisomerase II (topoisomerase II): no effect on topoisomerase II
- IC50 [2]: 35 nM
- IC50 (P388 [3]): 12 nM
- water solubility [4]: water-insoluble

SMILES: CC[C@@]1(O)C(=O)OCc2c1cc1n(c2=O)Cc2c-1nc1ccc(O)c3c1c2CN(C)C3 [Formula I, S-9-ethyl-2,3-dihydro-4,9-dihydroxy-2-methyl-1H,12H-benzo[ij]pyrano[3', 4':6,7]indolizino[1,2-c][2,6]naphthyridine-10,13(H,15H)-dione]
- IC50 [1]: 52 nM
- IC50 [2]: 840 nM
- IC50 (P388 [3]): 24 nM
- Efficacy in Mouse Tumor Models, % Inc. in Lifespan, P388 (P388 [5]; dose 40 mg/kg ip): 111%
- biological activity (cytotoxicity and efficacy in mouse tumor models) versus topotecan (P388 [5]; summary of Table I): comparable to topotecan

SMILES: CC[C@@]1(O)C(=O)OCc2c1cc1n(c2=O)Cc2cc3c(CN(C)C)c(O)ccc3nc2-1 [Topotecan, 9-dimethylaminomethyl-10-hydroxycamptothecin]
- IC50 [1]: 790 nM
- IC50 [2]: 2300 nM
- IC50 (P388 [3]): 30 nM
- efficacy in clinical tests [6]: demonstrated efficacy against several solid tumor cancers, particularly ovarian cancer and non-small cell lung carcinoma in humans
- Efficacy in Mouse Tumor Models, % Inc. in Lifespan, P388 (P388 [5]; dose 14.4 mg/kg, route not given): 156%

SMILES: CCc1c2c(nc3ccc(OC(=O)N4CCC(N5CCCCC5)CC4)cc13)-c1cc3c(c(=O)n1C2)COC(=O)[C@]3(O)CC [CPT-11, (S)-[1,4'-bipiperidine]-1'-carboxylic acid,4,11-diethyl-3,4,12,14-tetrahydro-4-hydroxy-3, 14-dioxo-1H-pyrano[3',4':6,7]indolizino[1,2-b]quinolin-9-yl]
- toxicity [7]: adverse toxicity profile

SMILES: CC[C@@]1(O)C(=O)OCc2c1cc1n(c2=O)Cc2cc3c(N)cccc3nc2-1 [9-aminocamptothecin, (S)-10-amino-4-ethyl-4-hydroxy-1H-pyrano[3',4':6,7]indolizino[1,2-b]quinoline-3, 14(4H,12H)-dione]
- water solubility [4]: limited water solubility
